These results are taken from patent publication US11365220B2, “Methods of making anti-GP41 antibody-specific capture agents” (California Institute of Technology, priority 2013, dated 2022).

For the assay, the system named is 4B3. To be noted: stored under N2 at 25° C., 37° C., or 57° C. for 58 days; 10 nM 4B3 spiked in 1% v/v human serum.

Protocol: Small amounts of (iii) were stored under N2 at 25° C., 37° C., or 57° C. for 58 days. […] The remaining samples were lyophilized and used in a single point sandwich ELISA. Streptavidin-coated 96-well plates were saturated with the samples of (iii) recovered from the storage experiments using 1 μM solutions in TBS. The plates were blocked with 5% w/v dry milk in TBS, then incubated with either 1% v/v human serum or 10 nM 4B3 spiked in 1% v/v human serum in 0.5% w/v dry milk in TBS at room temperature for 1 hr. Bound antibody was probed with HPR-conjugated mouse monoclonal antibody to human IgG Fc diluted 1:15,000 in 0.5% w/v dry milk in TBS. The colorimetric assay was developed with TMB substrate, then quenched with 1 M H2SO4 and read at 450 nm.

For the substance “Biotin-PEG5-IWCGSGKLICTTA-Pra-(TZ-Az4-eihny-CONH2)-ICTTA-CONH2 [(iii)]”, the “ELISA performance after storage” value is listed as “no detectable loss of performance”.
